What was measured:
[1] = Uptake of gabapentin following intracolonic administration of gabapentin or gabapentin prodrugs in rats; type: in vivo; details: dose equivalent to 25 mg gabapentin per kg
Procedure: Sustained release oral dosage forms, which release drug slowly over periods of 6–24 hours, generally release a significant proportion of the dose within the colon. […] This experiment was conducted to assess the suitability of gabapentin prodrugs for use in an oral sustained release dosage form.
Rats were obtained commercially and were pre-cannulated in the both the ascending colon and the jugular vein. Animals were conscious at the time of the experiment. All animals were fasted overnight and until 4 hours post-dosing. Gabapentin or gabapentin prodrugs (59), (63), (69), (72), (77), (79), (85), (117) and (126) were administered as a solution (in water or PEG 400) directly into the colon via the cannula at a dose equivalent to 25 mg of gabapentin per kg. Blood samples (0.5 mL) were obtained from the jugular cannula at intervals over 8 hours and were quenched immediately by addition of acetonitrile/methanol to prevent further conversion of the prodrug. Blood samples were analyzed as described below.
• 1. In blank 1.5 mL eppendorf tubes, 300 μL of 50/50 acetonitrile/methanol and 20 μL of p-chlorophenylalanine was added as an internal standard. • 2. […]
An API 2000 LC/MS/MS spectrometer equipped with Shidmadzu 10DVp binary pumps and a CTC HTS-PAL autosampler were used in the analysis. […] The peaks were integrated using Analyst 1.1 quantitation software.

[2] = tested on: mouse; details: cited from earlier work

Row | Structure (SMILES) | gabapentin AUC relative to colonic administration of gabapentin itself [1] | maximum plasma concentration of gabapentin (Cmax) relative to colonic administration of gabapentin itself [1] | toxicity (LD50, mouse) [2]
1 | CC(OC(=O)NCC1(CC(=O)O)CCCCC1)OC(=O)C(C)C (stereo not drawn) [(77), 1-{[(α-Isobutanoyloxyethoxy)carbonyl]aminomethyl}-1-Cyclohexane Acetic Acid] | greater than 10 fold | greater than 10 fold | 
2 | NCC1(CC(=O)O)CCCCC1 [gabapentin] |  |  | more than 8000 mg/kg
3 | O=C1CC2(CCCCC2)CN1 [lactam (5)] |  |  | 300 mg/kg
